Source: patent US20110105509A1 (Wyeth, LLC, priority 2009, published 2011)

What follows are compounds tested against T1, CRTH2 (Homo sapiens, UniProt Q9Y5Y4) (assay: FRET based competitive immunoassay (cAMP) in CRTH2 expressing CHO cells). Settings: CRTH2 expressing CHO cells incubated with forskolin and PGD2; Eu3+ cryptate-labeled anti-cAMP and d2-labeled cAMP.
T1 construct: expressed in transfected cells; host or cells: CHO cells
T1 sequence (Q9Y5Y4 1-395): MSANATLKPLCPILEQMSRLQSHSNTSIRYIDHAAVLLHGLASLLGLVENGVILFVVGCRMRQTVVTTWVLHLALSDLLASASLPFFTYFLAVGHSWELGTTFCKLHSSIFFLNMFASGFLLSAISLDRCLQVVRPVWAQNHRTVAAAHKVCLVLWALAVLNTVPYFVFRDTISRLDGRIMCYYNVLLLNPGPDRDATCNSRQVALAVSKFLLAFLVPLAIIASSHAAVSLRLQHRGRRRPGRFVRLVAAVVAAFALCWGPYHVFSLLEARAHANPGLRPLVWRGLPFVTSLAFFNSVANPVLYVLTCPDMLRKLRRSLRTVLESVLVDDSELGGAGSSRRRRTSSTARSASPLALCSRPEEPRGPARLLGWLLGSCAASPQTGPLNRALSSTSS
Format: cell-based
Procedure: FRET Assay: To evaluate potency compounds were tested in a FRET based competitive immunoassay in which CRTH2 expressing CHO cells were incubated in the presence of forskolin and PGD2 along with Eu3+ cryptate-labeled anti-cAMP and d2-labeled cAMP.
`Cc1c(-c2nn(Cc3ccc(Cl)c(F)c3)c(=O)c3ccccc23)c2cc(Cl)ccc2n1CC(=O)O` [Example 2, 2-(5-Chloro-3-(3-(4-chloro-3-fluorobenzyl)-4-oxo-3,4-dihydrophthalazin-1-yl)-2-methyl-1H-indol-1-yl)acetic acid] was tested, and the IC50 was 18 nM. Compound `Cc1c(Cc2ccc(=O)n(Cc3cc(F)ccc3F)c2)c2cc(F)ccc2n1CC(=O)O` [Example 26, 2-(3-((1-(2,5-Difluorobenzyl)-6-oxo-1,6-dihydropyridin-3-yl)methyl)-5-fluoro-2-methyl-1H-indol-1-yl)acetic acid] has an IC50 of 8 nM. In the case of `Cc1c(-c2ccc(=O)n(CCc3ccccc3)n2)c2ccccc2n1CC(=O)O` [Example 228, 2-(2-methyl-3-(6-oxo-1-phenethyl-1,6-dihydropyridazin-3-yl)-1H-indol-1-yl)acetic acid], the IC50 is reported as 147 nM. `Cc1c(-c2nn(Cc3ccc(F)cc3F)c(=O)c3ccccc23)c2cc(Cl)ccc2n1CC(=O)O` [Example 61, 2-(5-chloro-3-(3-(2,4-difluorobenzyl)-4-oxo-3,4-dihydrophthalazin-1-yl)-2-methyl-1H-indol-1-yl)acetic acid] showed an IC50 of 11 nM. With `Cc1c(Cc2ccc(=O)n(Cc3cccc(F)c3)n2)c2cc(F)ccc2n1CC(=O)O` [Example 341, (3-{[1-(3-fluorobenzyl)-6-oxo-1,6-dihydropyridazin-3-yl]methyl}-5-fluoro-2-methyl-1H-indol-1-yl)acetic acid] the IC50 was 33 nM. `Cc1c(-c2ccc(=O)n(CCOc3ccc(Cl)cc3)n2)c2cc(F)ccc2n1CC(=O)O` [Example 152, 2-(3-(1-(2-(4-chlorophenoxy)ethyl)-6-oxo-1,6-dihydropyridazin-3-yl)-5-fluoro-2-methyl-1H-indol-1-yl)acetic acid] gave an IC50 of 12 nM. For `Cc1c(-c2nn(CC3CC3)c(=O)c3ccccc23)c2cc(F)ccc2n1CC(=O)O` [Example 122, 2-(3-(3-(cyclopropylmethyl)-4-oxo-3,4-dihydrophthalazin-1-yl)-5-fluoro-2-methyl-1H-indol-1-yl)acetic acid], the IC50 was 27 nM. With `Cc1c(-c2ccc(=O)n(CCC(C(F)(F)F)C(F)(F)F)c2)c2cc(F)ccc2n1CC(=O)O` [Example 316, 2-(5-fluoro-2-methyl-3-(6-oxo-1-(4,4,4-trifluoro-3-(trifluoromethyl)butyl)-1,6-dihydropyridin-3-yl)-1H-indol-1-yl)acetic acid] the IC50 was 39 nM. Compound `Cc1c(-c2ccc(=O)n(Cc3ccccc3C(F)(F)F)n2)c2cc(F)ccc2n1CC(=O)O` [Example 216, 2-(5-fluoro-2-methyl-3-(6-oxo-1-(2-(trifluoromethyl)benzyl)-1,6-dihydropyridazin-3-yl)-1H-indol-1-yl)acetic acid] has an IC50 of 14 nM. With `Cc1c(-c2ccc(=O)n(CC(C)(C)Oc3ccccc3)n2)c2cc(F)ccc2n1CC(=O)O` [Example 230, 2-(5-fluoro-2-methyl-3-(1-(2-methyl-2-phenoxypropyl)-6-oxo-1,6-dihydropyridazin-3-yl)-1H-indol-1-yl)acetic acid] the IC50 was 232 nM. Compound `Cc1c(-c2ccc(=O)n(Cc3cc(F)c(F)cc3F)n2)c2ccccc2n1CC(=O)O` [Example 187, 2-(2-methyl-3-(6-oxo-1-(2,4,5-trifluorobenzyl)-1,6-dihydropyridazin-3-yl)-1H-indol-1-yl)acetic acid] has an IC50 of 75 nM. Compound `Cc1c(Cc2ccc(=O)n(Cc3ccc(C(C)(C)O)cc3)n2)c2cc(F)ccc2n1CC(=O)O` [Example 238, 2-(5-fluoro-3-((1-(4-(2-hydroxypropan-2-yl)benzyl)-6-oxo-1,6-dihydropyridazin-3-yl)methyl)-2-methyl-1H-indol-1-yl)acetic acid] has an IC50 of 13 nM. Compound `Cc1c(-c2nn(Cc3c(F)cccc3F)c(=O)c3ccccc23)c2ccccc2n1CC(=O)O` [Example 172, 2-(3-(3-(2,6-difluorobenzyl)-4-oxo-3,4-dihydrophthalazin-1-yl)-2-methyl-1H-indol-1-yl)acetic acid] has an IC50 of 40 nM. Work on `Cc1c(Cc2ccc(=O)n(Cc3cccc(F)c3F)n2)c2cc(F)ccc2n1CC(=O)O` [Example 339, (3-{[1-(2,3-difluorobenzyl)-6-oxo-1,6-dihydropyridazin-3-yl]methyl}-5-fluoro-2-methyl-1H-indol-1-yl)acetic acid] yielded an IC50 of 4 nM. Compound `Cc1c(-c2cn(CCCC(F)(F)F)c(=O)c3ccccc23)c2cc(F)ccc2n1CC(=O)O` [Example 256, (5-fluoro-2-methyl-3-(1-oxo-2-(4,4,4-trifluorobutyl)-1,2-dihydroisoquinolin-4-yl)-1H-indol-1-yl)acetic acid] has an IC50 of 2 nM. Work on `Cc1c(-c2ccc(=O)n(CC(F)(F)F)n2)c2cc(F)ccc2n1CC(=O)O` [Example 162, 2-(5-Fluoro-2-methyl-3-(6-oxo-1-(2,2,2-trifluoroethyl)-1,6-dihydropyridazin-3-yl)-1H-indol-1-yl)acetic acid] yielded an IC50 of 462 nM. With `Cc1c(-c2nn(Cc3ccccc3)c(=O)c3ccccc23)c2cc(S(C)(=O)=O)cc(F)c2n1CC(=O)O` [Example 15, 2-(3-(3-Benzyl-4-oxo-3,4-dihydrophthalazin-1-yl)-7-fluoro-2-methyl-5-(methylsulfonyl)-1H-indol-1-yl)acetic acid] the IC50 was 214 nM. Compound `Cc1c(-c2ccc(=O)n(Cc3cccc(F)c3F)c2)c2cc(F)ccc2n1CC(=O)N1CCCC1` [Example 299, 1-(2,3-difluorobenzyl)-5-(5-fluoro-2-methyl-1-(2-oxo-2-(pyrrolidin-1-yl)-ethyl)-1H-indol-3-yl)pyridin-2(1H)-one] has an IC50 of over 2000 nM. Work on `Cc1c(-c2ccc(=O)n(Cc3cccc(F)c3F)c2)c2cc(F)ccc2n1CC(=O)N(C)C` [Example 300, 2-(3-(1-(2,3-difluorobenzyl)-6-oxo-1,6-dihydropyridin-3-yl)-5-fluoro-2-methyl-1H-indol-1-yl)-N,N-dimethylacetamide] yielded an IC50 of over 2000 nM. `Cc1c(-c2ccc(=O)n(CCCC(F)(F)F)c2)c2ccccc2n1CC(=O)O` [Example 296, 2-(2-methyl-3-(6-oxo-1-(4,4,4-trifluorobutyl)-1,6-dihydropyridin-3-yl)-1H-indol-1-yl)acetic acid] gave an IC50 of 397 nM. Work on `Cc1c(-c2ccc(=O)n(Cc3cccc(F)c3F)c2)c2cc(F)ccc2n1CC#N` [Example 310, 2-(3-(1-(2,3-difluorobenzyl)-6-oxo-1,6-dihydropyridin-3-yl)-5-fluoro-2-methyl-1H-indol-1-yl)acetonitrile] yielded an IC50 of over 1000 nM. Compound `Cc1c(Cc2ccc(=O)n(Cc3ccccn3)n2)c2cc(F)ccc2n1CC(=O)O` [Example 196, 2-(5-fluoro-2-methyl-3-((6-oxo-1-(pyridin-2-ylmethyl)-1,6-dihydropyridazin-3-yl)methyl)-1H-indol-1-yl)acetic acid] has an IC50 of 18 nM. `Cc1c(-c2ccc(=O)n(CCCC(F)(F)F)c2)c2cc(F)ccc2n1CC(=O)NS(=O)(=O)C1CC1` [Example 317, N-(cyclopropylsulfonyl)-2-(5-fluoro-2-methyl-3-(6-oxo-1-(4,4,4-trifluorobutyl)-1,6-dihydropyridin-3-yl)-1H-indol-1-yl)acetamide] was tested, and the IC50 was over 1000 nM. `Cc1c(-c2ccc(=O)n(Cc3ccc(C(C)C)cc3)n2)c2cc(Cl)ccc2n1CC(=O)O` [Example 147, 2-(5-chloro-3-(1-(4-isopropylbenzyl)-6-oxo-1,6-dihydropyridazin-3-yl)-2-methyl-1H-indol-1-yl)acetic acid] was tested, and the IC50 was 334 nM. `Cc1c(-c2nn(Cc3nnc[nH]3)c(=O)c3ccccc23)c2cc(F)ccc2n1CC(=O)O` [Example 270, 2-(3-(3-((4H-1,2,4-triazol-3-yl)methyl)-4-oxo-3,4-dihydrophthalazin-1-yl)-5-fluoro-2-methyl-1H-indol-1-yl)acetic acid] showed an IC50 of over 5500 nM. `Cc1c(-c2nn(Cc3ccc4ccccc4n3)c(=O)c3ccccc23)c2cc(F)ccc2n1CC(=O)O` [Example 118, 2-(5-fluoro-2-methyl-3-(4-oxo-3-(quinolin-2-ylmethyl)-3,4-dihydro-phthalazin-1-yl)-1H-indol-1-yl)acetic acid] gave an IC50 of 9 nM. `Cc1c(Cc2ccc(=O)n(Cc3ccc(F)cc3)n2)c2cc(F)ccc2n1CC(=O)O` [Example 342, (3-{[1-(4-fluorobenzyl)-6-oxo-1,6-dihydropyridazin-3-yl]methyl}-5-fluoro-2-methyl-1H-indol-1-yl)acetic acid] showed an IC50 of 13 nM. `Cc1c(Cc2ccc(=O)n(Cc3cc(F)ccc3F)c2)c2ccccc2n1CC(=O)O` [Example 25, 2-(3-((1-(2,5-Difluorobenzyl)-6-oxo-1,6-dihydropyridin-3-yl)methyl)-2-methyl-1H-indol-1-yl)acetic acid] gave an IC50 of 7 nM. In the case of `Cc1c(Cc2ccc(=O)n(Cc3c(F)cccc3F)c2)c2ccccc2n1CC(=O)O` [Example 37, 2-(3-((1-(2,6-Difluorobenzyl)-6-oxo-1,6-dihydropyridin-3-yl)methyl)-2-methyl-1H-indol-1-yl)acetic acid], the IC50 is reported as 35 nM. Work on `Cc1c(-c2nn(C(C)C)c(=O)c3ccccc23)c2ccccc2n1CC(=O)O` [Example 326, [3-(3-isopropyl-4-oxo-3,4-dihydrophthalazin-1-yl)-2-methyl-1H-indol-1-yl]acetic acid] yielded an IC50 of 61 nM. In the case of `Cc1c(-c2nn(CCOc3ccccc3)c(=O)c3ccccc23)c2ccccc2n1CC(=O)O` [Example 223, 2-(2-methyl-3-(4-oxo-3-(2-phenoxyethyl)-3,4-dihydrophthalazin-1-yl)-1H-indol-1-yl)acetic acid], the IC50 is reported as 6 nM. `Cc1c(-c2nn(Cc3ccc(Cl)cc3Cl)c(=O)c3ccccc23)c2cc(F)ccc2n1CC(=O)O` [Example 7, 2-(3-(3-(2,4-dichlorobenzyl)-4-oxo-3,4-dihydrophthalazin-1-yl)-5-fluoro-2-methyl-1H-indol-1-yl)acetic acid] gave an IC50 of 4 nM.
